In patent publication US6525001B1, “Substituted pyrimidine and pyridine herbicides” (Mid-American Commercialization Corporation, priority 1997, dated 2003):

Assays:
Assay type in all cases: in vivo
[1] = system: bedstraw (Galium aparine); test: Test B pre-/postemergence; parameters: key: 0 is no effect; 10 is complete control
Source text: (§1) Seeds of bedstraw (Galium aparine), blackgrass (Alopecurus myosuroides), broadleaf signalgrass (Brachiaria decumbens), cocklebur (Xanthium strumarium), corn (Zea mays), crabgrass (Digitaria sanguinalis), giant foxtail (Setaria faberii), lambsquarters (Chenopodium album), momingglory (Ipomoea hederacea), pigweed (Amaranthus retroflexus), rape (Brassica napus), soybean (Glycine max), sugar beet (Beta vulgaris), velvetleaf (Abutilon theophrasti), wheat (Triticum aestivum), wild oat (Avena fatua) and purple nutsedge (Cyperus rotundus) tubers were planted and treated preemergence with test chemicals formulated in a non-phytotoxic solvent mixture which included a surfactant.
(§2) At the same time, these crop and weed species were also treated with postemergence applications of test chemicals formulated in the same manner. Plants ranged in height from 2 to 18 cm (1- to 4-leaf stage) for postemergence treatments. Plant species in the flood test consisted of rice (Oryza sativa), smallflower flatsedge (Cyperus difformis), duck salad (Heteranthera limosa) and bamyardgrass (Echinochloa crus-galli) grown to the 2-leaf stage for testing. Treated plants and controls were maintained in a greenhouse for twelve to sixteen days, after which all species were compared to controls and visually evaluated. Plant response ratings, summarized in Table B, are based on a scale of 0 to 10 where 0 is no effect and 10 is complete control. A dash (−) response means no test result.

[2] = system: blackgrass (Alopecurus myosuroides); test: Test B pre-/postemergence; parameters: key: 0 is no effect; 10 is complete control
Source text: as §1, §2

[3] = system: broadleaf signalgrass (Brachiaria decumbens); test: Test B pre-/postemergence; parameters: key: 0 is no effect; 10 is complete control
Source text: as §1, §2

[4] = system: cocklebur (Xanthium strumarium); test: Test B pre-/postemergence; parameters: key: 0 is no effect; 10 is complete control
Source text: as §1, §2

[5] = system: corn (Zea mays); test: Test B pre-/postemergence; parameters: key: 0 is no effect; 10 is complete control
Source text: as §1, §2

[6] = system: crabgrass (Digitaria sanguinalis); test: Test B pre-/postemergence; parameters: key: 0 is no effect; 10 is complete control
Source text: as §1, §2

[7] = system: giant foxtail (Setaria faberii); test: Test B pre-/postemergence; parameters: key: 0 is no effect; 10 is complete control
Source text: as §1, §2

[8] = system: momingglory (Ipomoea hederacea); test: Test B pre-/postemergence; parameters: key: 0 is no effect; 10 is complete control
Source text: as §1, §2

[9] = system: pigweed (Amaranthus retroflexus); test: Test B pre-/postemergence; parameters: key: 0 is no effect; 10 is complete control
Source text: as §1, §2

[10] = system: purple nutsedge (Cyperus rotundus); test: Test B pre-/postemergence; parameters: key: 0 is no effect; 10 is complete control
Source text: as §1, §2

[11] = system: rape (Brassica napus); test: Test B pre-/postemergence; parameters: key: 0 is no effect; 10 is complete control
Source text: as §1, §2

[12] = system: soybean (Glycine max); test: Test B pre-/postemergence; parameters: key: 0 is no effect; 10 is complete control
Source text: as §1, §2

[13] = system: sugar beet (Beta vulgaris); test: Test B pre-/postemergence; parameters: key: 0 is no effect; 10 is complete control
Source text: as §1, §2

[14] = system: velvetleaf (Abutilon theophrasti); test: Test B pre-/postemergence; parameters: key: 0 is no effect; 10 is complete control
Source text: as §1, §2

[15] = system: wheat (Triticum aestivum); test: Test B pre-/postemergence; parameters: key: 0 is no effect; 10 is complete control
Source text: as §1, §2

[16] = system: wild oat (Avena fatua); test: Test B pre-/postemergence; parameters: key: 0 is no effect; 10 is complete control
Source text: as §1, §2

[17] = system: bamyardgrass (Echinochloa crus-galli); test: Test B flood test
Procedure, shortened: (§3)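 Each value is a visual injury score relative to controls, with 10 meaning complete control and 0 no effect. Evaluation took place twelve to sixteen days after the 2-leaf-stage plants were treated and kept in the greenhouse.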

[18] = system: duck salad (Heteranthera limosa); test: Test B flood test
Procedure, shortened: as §3

[19] = system: rice (Oryza sativa); test: Test B flood test
Procedure, shortened: as §3

[20] = system: smallflower flatsedge (Cyperus difformis); test: Test B flood test
Procedure, shortened: as §3

[21] = Rate 62 g/ha, Postemergence (flood test)
[22] = Rate 125 g/ha, Postemergence, flood test
[23] = Rate 250 g/ha, Postemergence (flood test species)

Q: Which results are given for `Cc1cnc(-c2ccc(C(F)(F)F)cc2)nc1C(C#N)c1cccc(C(F)(F)F)c1` (racemic) [Compound 17]?
A: Plant response rating, Bedstraw ([1]; Rate 62 g/ha, Postemergence): 8; Bedstraw plant response rating ([1]; Rate 62 g/ha, Preemergence): 1; Plant response rating, Bedstraw ([1]; Rate 125 g/ha, Postemergence): 9; Bedstraw plant response rating ([1]; Rate 125 g/ha, Preemergence): 3; Plant response rating, Bedstraw ([1]; Rate 250 g/ha, Postemergence): 9; Plant response rating, Bedstraw ([1]; Rate 250 g/ha, Preemergence): 5; Plant response rating, Blackgrass ([2]; Rate 62 g/ha, Postemergence): 3; Blackgrass plant response rating ([2]; Rate 62 g/ha, Preemergence): 2; Plant response rating, Blackgrass ([2]; Rate 125 g/ha, Postemergence): 6; Blackgrass plant response rating ([2]; Rate 125 g/ha, Preemergence): 6; Plant response rating, Blackgrass ([2]; Rate 250 g/ha, Postemergence): 7; Plant response rating, Blackgrass ([2]; Rate 250 g/ha, Preemergence): 9; Plant response rating, B. signalgrass ([3]; Rate 62 g/ha, Postemergence): 4; B. signalgrass plant response rating ([3]; Rate 62 g/ha, Preemergence): 3; Plant response rating, B. signalgrass ([3]; Rate 125 g/ha, Postemergence): 5; B. signalgrass plant response rating ([3]; Rate 125 g/ha, Preemergence): 7; Plant response rating, B. signalgrass ([3]; Rate 250 g/ha, Postemergence): 7; Plant response rating, B. signalgrass ([3]; Rate 250 g/ha, Preemergence): 9; Plant response rating, Cocklebur ([4]; Rate 62 g/ha, Postemergence): 4; Cocklebur plant response rating ([4]; Rate 62 g/ha, Preemergence): 0; Plant response rating, Cocklebur ([4]; Rate 125 g/ha, Postemergence): 8; Cocklebur plant response rating ([4]; Rate 125 g/ha, Preemergence): 0; Plant response rating, Cocklebur ([4]; Rate 250 g/ha, Postemergence): 8; Plant response rating, Cocklebur ([4]; Rate 250 g/ha, Preemergence): 0; Plant response rating, Corn ([5]; Rate 62 g/ha, Postemergence): 2; Corn plant response rating ([5]; Rate 62 g/ha, Preemergence): 0; Plant response rating, Corn ([5]; Rate 125 g/ha, Postemergence): 2; Corn plant response rating ([5]; Rate 125 g/ha, Preemergence): 0; Plant response rating, Corn ([5]; Rate 250 g/ha, Postemergence): 3; Plant response rating, Corn ([5]; Rate 250 g/ha, Preemergence): 1; Plant response rating, Crabgrass ([6]; Rate 62 g/ha, Postemergence): 4; Crabgrass plant response rating ([6]; Rate 62 g/ha, Preemergence): 3; Plant response rating, Crabgrass ([6]; Rate 125 g/ha, Postemergence): 4; Crabgrass plant response rating ([6]; Rate 125 g/ha, Preemergence): 8; Plant response rating, Crabgrass ([6]; Rate 250 g/ha, Postemergence): 4; Plant response rating, Crabgrass ([6]; Rate 250 g/ha, Preemergence): 9; Plant response rating, Giant foxtail ([7]; Rate 62 g/ha, Postemergence): 2; Giant foxtail plant response rating ([7]; Rate 62 g/ha, Preemergence): 5; Plant response rating, Giant foxtail ([7]; Rate 125 g/ha, Postemergence): 4; Giant foxtail plant response rating ([7]; Rate 125 g/ha, Preemergence): 10; Plant response rating, Giant foxtail ([7]; Rate 250 g/ha, Postemergence): 5; Plant response rating, Giant foxtail ([7]; Rate 250 g/ha, Preemergence): 10; Plant response rating, Morningglory ([8]; Rate 62 g/ha, Postemergence): 7; Morningglory plant response rating ([8]; Rate 62 g/ha, Preemergence): 0; Plant response rating, Morningglory ([8]; Rate 125 g/ha, Postemergence): 8; Morningglory plant response rating ([8]; Rate 125 g/ha, Preemergence): 1; Plant response rating, Morningglory ([8]; Rate 250 g/ha, Postemergence): 8; Plant response rating, Morningglory ([8]; Rate 250 g/ha, Preemergence): 2; Plant response rating, Redroot pigweed ([9]; Rate 62 g/ha, Postemergence): 9; Redroot pigweed plant response rating ([9]; Rate 62 g/ha, Preemergence): 4; Plant response rating, Redroot pigweed ([9]; Rate 125 g/ha, Postemergence): 10; Redroot pigweed plant response rating ([9]; Rate 125 g/ha, Preemergence): 9; Plant response rating, Redroot pigweed ([9]; Rate 250 g/ha, Postemergence): 10; Plant response rating, Redroot pigweed ([9]; Rate 250 g/ha, Preemergence): 10; Plant response rating, Nutsedge ([10]; Rate 62 g/ha, Postemergence): 0; Nutsedge plant response rating ([10]; Rate 62 g/ha, Preemergence): 0; Plant response rating, Nutsedge ([10]; Rate 125 g/ha, Postemergence): 0; Nutsedge plant response rating ([10]; Rate 125 g/ha, Preemergence): 0; Plant response rating, Nutsedge ([10]; Rate 250 g/ha, Postemergence): 0; Plant response rating, Nutsedge ([10]; Rate 250 g/ha, Preemergence): 0; Plant response rating, Rape ([11]; Rate 62 g/ha, Postemergence): 7; Rape plant response rating ([11]; Rate 62 g/ha, Preemergence): 0; Plant response rating, Rape ([11]; Rate 125 g/ha, Postemergence): 8; Rape plant response rating ([11]; Rate 125 g/ha, Preemergence): 2; Plant response rating, Rape ([11]; Rate 250 g/ha, Postemergence): 8; Plant response rating, Rape ([11]; Rate 250 g/ha, Preemergence): 3; Plant response rating, Soybean ([12]; Rate 62 g/ha, Postemergence): 3; Soybean plant response rating ([12]; Rate 62 g/ha, Preemergence): 0; Plant response rating, Soybean ([12]; Rate 125 g/ha, Postemergence): 3; Soybean plant response rating ([12]; Rate 125 g/ha, Preemergence): 0; Plant response rating, Soybean ([12]; Rate 250 g/ha, Postemergence): 8; Plant response rating, Soybean ([12]; Rate 250 g/ha, Preemergence): 0; Plant response rating, Sugarbeets ([13]; Rate 62 g/ha, Postemergence): 9; Sugarbeets plant response rating ([13]; Rate 62 g/ha, Preemergence): 1; Plant response rating, Sugarbeets ([13]; Rate 125 g/ha, Postemergence): 10; Sugarbeets plant response rating ([13]; Rate 125 g/ha, Preemergence): 8; Plant response rating, Sugarbeets ([13]; Rate 250 g/ha, Postemergence): 10; Plant response rating, Sugarbeets ([13]; Rate 250 g/ha, Preemergence): 9; Plant response rating, Velvetleaf ([14]; Rate 62 g/ha, Postemergence): 2; Velvetleaf plant response rating ([14]; Rate 62 g/ha, Preemergence): 0; Plant response rating, Velvetleaf ([14]; Rate 125 g/ha, Postemergence): 4; Velvetleaf plant response rating ([14]; Rate 125 g/ha, Preemergence): 1; Plant response rating, Velvetleaf ([14]; Rate 250 g/ha, Postemergence): 7; Plant response rating, Velvetleaf ([14]; Rate 250 g/ha, Preemergence): 1; Plant response rating, Wheat ([15]; Rate 62 g/ha, Postemergence): 3; Wheat plant response rating ([15]; Rate 62 g/ha, Preemergence): 0; Plant response rating, Wheat ([15]; Rate 125 g/ha, Postemergence): 3; Wheat plant response rating ([15]; Rate 125 g/ha, Preemergence): 1; Plant response rating, Wheat ([15]; Rate 250 g/ha, Postemergence): 4; Plant response rating, Wheat ([15]; Rate 250 g/ha, Preemergence): 3; Plant response rating, Wild oats ([16]; Rate 62 g/ha, Postemergence): 3; Wild oats plant response rating ([16]; Rate 62 g/ha, Preemergence): 2; Plant response rating, Wild oats ([16]; Rate 125 g/ha, Postemergence): 4; Wild oats plant response rating ([16]; Rate 125 g/ha, Preemergence): 5; Plant response rating, Wild oats ([16]; Rate 250 g/ha, Postemergence): 5; Plant response rating, Wild oats ([16]; Rate 250 g/ha, Preemergence): 8; Plant response rating, Barnyardgrass [17, 21]: 4; Plant response rating, Barnyardgrass [17, 22]: 4; Plant response rating, Barnyardgrass [17, 23]: 6; Plant response rating, Ducksalad [18, 21]: 3; Plant response rating, Ducksalad [18, 22]: 5; Plant response rating, Ducksalad [18, 23]: 5; Plant response rating, Rice [19, 21]: 4; Plant response rating, Rice [19, 22]: 4; Plant response rating, Rice [19, 23]: 6; Plant response rating, S. Flatsedge [20, 21]: 2; Plant response rating, S. Flatsedge [20, 22]: 3; Plant response rating, S. Flatsedge [20, 23]: 5
